Source: patent US20170044150A1, “IDENTIFICATION OF COMPOUNDS WHICH INHIBIT ATG8-ATG3 PROTEIN-PROTEIN INTERACTION AND THEIR USE AS ANTIPARASITICAL AGENTS” (THE JOHNS HOPKINS UNIVERSITY, priority 2014, published 2017)

Legend:
hLC3-hAtg3 interaction = biological target: T1, hLC3-hAtg3 interaction (Homo sapiens, UniProt Q9GZQ8); test: SPR protein-protein interaction assay, hLC3-hAtg3; format: binding; conditions: 500 μM
T1 construct: made in house; host or cells: E. coli Rosetta 2
Method: Surface Plasmon Resonance (SPR) protein-protein interaction assay. All measurements were carried out on a BiaCore 3000 instrument. We used the previously described SPR competition assay to test inhibition of the PfAtg8-PfAtg3 and hLC3-hAtg3 interaction. The standard running buffer was 10 mM HEPES, 150 mM NaCl, 0.01% Tween 20, adjusted to pH 7.5. Prior to performing SPR assays, all solutions were sterile filtered and degassed for 1 h at room temperature. For small molecule inhibitor studies, the same running buffer was supplemented with 1% DMSO. All dose dependency measurements were carried out in triplicate and corrected for DMSO absorption effects using double referencing with interspersed blank injections and an untreated flow cell on the SPR chip and the SPR analysis software Scrubber 2.0 (BioLogics). For each interaction pair, a new CM5 SPR chip was used. To exclude surface decay during the experiment, positive control injections were interspersed every 12th injection. For all interaction studies, the Atg3 homologue was immobilized and the corresponding Atg8 partner was passed as an analyte over the chip in either the presence or absence of small molecule inhibitors, dissolved to 100 mM in 100% DMSO and tested at 500 μM final concentration. […]

HC-04 cells = test: HC-04 hepatocyte viability / cytotoxicity (Annexin-V, PI flow cytometry); format: cell-based, human; conditions: 96 hour treatment
PfAtg8 = test: Immunoblot analysis of PfAtg8 in P. falciparum blood stage cultures; format: cell-based; conditions: 100 μM, five-hour treatment
Description: Immunoblot analysis of P. falciparum blood stage. […] RBCs were harvested with centrifugation, lysed with 0.2% saponin, and RBC lysate was removed through three 1× PBS washes. Parasites were harvested by centrifugation and washed in 1× PBS with Complete EDTA-free protease inhibitors (Roche) and lysed by repeated vortexing and boiling in SDS reducing sample buffer. […] HRP-conjugated secondary antibodies (Southern Biotech) were detected by SuperSignal West Femto (Thermo Scientific) or Amersham™ ECL™ Prime (GE Healthcare) chemiluminescent substrate. AP-conjugated secondary antibodies (EMD Millipore) were detected using NBT/BCIP (Promega) colorimetric stain. Total protein levels were visualized with ProAct™ Membrane Stain (Amresco) and quantified with ImageJ. Parasite morphology at time of harvesting was visualized with light microscopy at 100× magnification on Olympus BX53 system microscope (Olympus America, Inc.).

P. falciparum 3D7-GFP = format: cell-based; conditions: 96 hrs post infection
Method: In vitro infection of human hepatocytes with P. falciparum 3D7-GFP. The HC-04 cell line (ATCC, Manassas, Va., USA) was maintained in complete medium (IMDM containing 2.5% FCS, 100 units/ml penicillin, 100 μg/ml streptomycin and 2 mM L-glutamine, all from GIBCO®, Life Technologies, Grand Island, N.Y.). P. falciparum 3D7-GFP parasite strain (PLoS ONE 2010, 5, e9156) was propagated in the Parasitology Core facility, the Johns Hopkins Malaria Research Institute. In vitro infection of human hepatocytes was done as described previously (PLoS ONE 2013, 8, e75321). Briefly, salivary glands were sequestered from infected Anopheles gambiae mosquitoes at day 17 after exposure to infective blood meal and homogenates were separated on an OptiPrep™ Density Gradient (Sigma-Aldrich, St. Louis, Mo.) at 12,000×g for 10 minutes. Sporozoites were collected from the gradient interface, washed in complete medium, counted using a hemocytometer and incubated with HC-04 cells at 3:1 sporozoite to hepatocyte ratio for 2 hours at 37° C. […]
Detection of P. falciparum exoerythrocytic forms in vitro. HC-04 human hepatocyte cell line (ATCC, Manassas, Va., USA) was maintained in complete medium (IMDM containing 2.5% FCS, 100 units/ml penicillin, 100 μg/ml streptomycin and 2 mM L-glutamine, all from GIBCO®, Life Technologies, Grand Island, N.Y.). P. falciparum 3D7HT-GFP parasite strain (PLoS One. 5(2):e9156. doi:10.1371/journal.pone.0009156 (2010)) was propagated in the Parasitology Core facility of the Johns Hopkins Malaria Research Institute. In vitro infection of human hepatocytes, and detection and quantification of P. falciparum 3D7HT-GFP EEFs by flow cytometry were performed as previously described (PLoS One. 8(9):e75321. doi:10.1371/journal.pone.0075321 (2013)).

P. falciparum 3D7 = test: SYBR Green I growth inhibition assay, blood stage; format: cell-based; conditions: Plasmodium falciparum, 3D7, 3D7 blood stage cultures; read-out: IC50
Method: P. falciparum blood stage culturing. P. falciparum 3D7 and FCR3 cultures were maintained using modified, previously published methods at 37° C., 2% hematocrit of human red blood cells (Science 1976, 193, 673-675). Complete culture media consisted of sterile RPMI 1640 media (Life Technologies), supplemented with 10% human serum, 0.005% hypoxanthine, and buffered with final concentrations of 0.6% HEPES and 0.26% NaHCO3. The FCR3 strain was maintained at 3% CO2 and 5% O2, 92% N2 atmosphere, while the 3D7 strain was maintained at 5% CO2, 5% O2, 90% N2 atmosphere.
SYBR Green I growth inhibition assay. 10 μL of 10× compound diluted in RPMI 1640 media (Gibco) with a constant concentration of 1% DMSO was added to a 96 well plate (Costar), 90 μL of 1.5% ring stage, synchronized with 5% w/v sorbitol P. falciparum 3D7 parasites, 1% hematocrit, in culture media with 10% v/v human serum with 10 μg/mL gentamycin. Each compound concentration and 1% v/v DMSO controls were run in triplicate. Plates were incubated at 37° C. in 5% O2, 5% CO2 and 90% N2 for 72 hours. Plates were frozen, thawed, and incubated with 100-μL 2× SYBR green in lysis buffer (20 mM Tris pH 7.5, 5 mM EDTA, 0.008% Saponin, 0.08% TritonX-100) in the dark for at least one hour. Fluorescence was measured with a plate reader (HTS 7000, Perkin Elmer) at excitation/emission wavelengths of 485/535 nm.
Plasmodium parasite growth inhibition assay. P. falciparum 3D7 parasites were cultured as previously described (J Med Chem 57:4521-4531(2014)). Briefly, the parasites were cultured in 10% v/v human serum with 10 μg/mL gentamycin and synchronized with 5% w/v sorbitol. 1.5% ring stage parasites were added to 96 well plates (Costar) containing serial dilutions, performed in triplicate, of compound in RPMI 1640 media (Gibco). Plates were incubated at 37° C. in 5% O2, 5% CO2, and 90% N2 for 72 h. Plates were frozen, thawed, and incubated with 100 μL 2× SYBR green in lysis buffer (20 mM Tris pH 7.5, 5 mM EDTA, 0.008% Saponin, 0.08% TritonX-100) in the dark for 1 h. Fluorescence was measured with a plate reader (HTS 7000, PerkinElmer) at excitation/emission wavelengths of 485/535 nm.

PfAtg8^CM = PfAtg8^CM (Plasmodium falciparum, UniProt Q8IJK2); test: Thermal shift assay; conditions: 100 μM to 2 mM
[1] = biological target: T2, PfAtg8-PfAtg3 interaction (Plasmodium falciparum, UniProt Q8IJK2); test: SPR protein-protein interaction assay, PfAtg8-PfAtg3 (VLS compounds); format: binding, P. falciparum; conditions: read-out: SPR-IC50; dose-dependent inhibition of plasmodial Atg8-Atg3
T2 construct: rows headed: SPR-IC50
T2 sequence (Q8IJK2 1-124 C32I/C119S/C122S): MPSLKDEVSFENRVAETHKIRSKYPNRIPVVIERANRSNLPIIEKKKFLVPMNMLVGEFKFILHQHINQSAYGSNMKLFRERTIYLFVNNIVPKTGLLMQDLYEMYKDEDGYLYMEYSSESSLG
Method: Surface Plasmon Resonance (SPR) protein-protein interaction assay. All measurements were carried out on a BiaCore 3000 instrument. We used the previously described SPR competition assay to test inhibition of the PfAtg8-PfAtg3 and hLC3-hAtg3 interaction. The standard running buffer was 10 mM HEPES, 150 mM NaCl, 0.01% Tween 20, adjusted to pH 7.5. Prior to performing SPR assays, all solutions were sterile filtered and degassed for 1 h at room temperature. For small molecule inhibitor studies, the same running buffer was supplemented with 1% DMSO. All dose dependency measurements were carried out in triplicate and corrected for DMSO absorption effects using double referencing with interspersed blank injections and an untreated flow cell on the SPR chip and the SPR analysis software Scrubber 2.0 (BioLogics). For each interaction pair, a new CM5 SPR chip was used. To exclude surface decay during the experiment, positive control injections were interspersed every 12th injection. For all interaction studies, the Atg3 homologue was immobilized and the corresponding Atg8 partner was passed as an analyte over the chip in either the presence or absence of small molecule inhibitors, dissolved to 100 mM in 100% DMSO and tested at 500 μM final concentration. Prior to the immobilization of Atg3 to an SPR chip, a pH scouting from pH 6.0 to pH 4.0 in intervals of 0.5 pH units was carried out to determine the best pre-concentration conditions for immobilization. Briefly, flow cells of an SPR chip were activated using N-hydroxysuccinimide (NHS) and 1-ethyl-3-(3-dimethylaminopropyl)carbodiimide (EDC) for 7 min with a flow rate of 20 μl/min. For PfAtg3 immobilization, a solution of 50 μg/ml of PfAtg3 in 10 mM sodium acetate pH 5.0 was passed over one flow cell until >500 Response Units (RU) were captured. The same procedure was followed for the immobilization of hAtg3. Activated free binding sites on the chip were blocked using 1 M ethanolamine for an additional 7 min. All experiments were carried out at 25° C. with a 40 μl/min flow rate and 75 s contact time, followed by a 1 min dissociation time and a 25 μl regeneration injection of 2 M MgCl2.
The dose-response curves were used to determine the approximate concentration of analyte (PfAtg8 or hLC3) needed to obtain a particular response unit (RU), typically in the range of 100-150 RU's. A fixed amount of analyte was then passed over the chip resulting in at least 100-150 response units (RU) in the absence of small molecules.

effect on hAtg3-hLC3 binding (hLC3-hAtg3 interaction) | Compound | cell viability of HC-04 cells (HC-04 cells) | increase of PfAtg8 protein levels compared to the loading control (PfAtg8) | mobility of Atg8 (PfAtg8) | reduction of the number of infected HC-04 cells (P. falciparum 3D7-GFP; 30 μM) | GFP fluorescence intensity (P. falciparum 3D7-GFP) | IC50 (P. falciparum 3D7) | effect on Tm of PfAtg8^CM (PfAtg8^CM) | IC50 [1]
significant increase in binding | Cc1cccn2cc(C(=O)NCC3CCN(Cc4cnc[nH]4)C3)nc12 (stereo not drawn) [Compound C24, N-([1-(1H-imidazol-5-ylmethyl)pyrrolidin-3-yl]methyl)-8-methyl-imidazo[3,2-a] pyridine-2-carboxamide] | – | – | – | – | – | – | – | –
– | Cc1cccc(CNC(=O)NCC2CCN(Cc3ccccn3)C2)c1 (stereo not drawn) [Compound C25, 1-[(3-methylphenyl)methyl]-3-([1-pyridin-2-ylmethyl-pyrrolidin-3-yl]methyl)urea] | did not affect cell viability | over 10 fold | retarded, indicative of the unlipidated Atg8 species | 30% | little effect | 19 ± 6 µM | dose-dependent decrease | 18.5 ± 2.1 µM
